Measurements as given in patent publication US4504414A, “Synthetic pyridyl-alanyl decapeptides having antiovulatory activity” (Board of Regents, The University of Texas System, priority 1983, dated 1985).
Several values for one entry are separate records, joined by “and”; a condition that tells them apart may be missing. Identical values can stand only once. Like-named read-outs stand apart in the source and are kept apart here.

Assays:
[1] = tested on: ovulation in rats; experiment: Inhibition of ovulation in rats, subcutaneous administration; assay type: in vivo, rat; conditions: for inhibition of ovulation: 40 hrs before anticipated ovulation
Procedure: (§1) Biological Assays. The peptides were assayed for activity to inhibit ovulation in rats, as described [J. Humphries, Y.-P. Wan, K. Folkers and C. Y. Bowers; J. Med. Chem. 21, 120-123 (1978)]. The procedure for assay when the antagonist is administered orally is the same except for the route of administration.

[2] = tested on: ovulation in the rat; experiment: Assays of antagonists for oral activity (inhibition of ovulation in the rat); assay type: in vivo
Procedure: as §1
Analogs I, XI and XII were also tested by the oral route of administration for inhibition of ovulation in the rat, since the projected human application would be by oral administration. The data in Table 3 resulted from the administration at noon. When the administration is at 2:30 PM, effectiveness is reduced, presumably because of the LH surge. Analog I caused 100% AOA at a 2 mg dosage with administration at noon and 71% AOA/2 mg and 50% AOA/1 mg by administration at 2:30 PM Nekola et al. [Science 218, 160-162 (1982)] have reported on the oral activity of I under diverse conditions.

[3] = tested on: ovulation in rats; conditions: data of Coy et al., cited from earlier work

## [N--Ac--3,4-diCl--D-Phe^1,pCl--D-Phehu 2,D-3-Pal^3,D-Arg^7, D-Ala^10 ]--LHRH [Analog XII]
[1]; dose 0.25 μg
  Rats ovu./No. rats: 9/9
[1]; dose 0.5 μg
  % AOA (% inhibition of ovulation in rats): 82%
  Rats ovu./No. rats: 9/11
[2]; 250 μg, administered at noon
  No. Ova.: 12.2 ± 1.0
  Rats Ovu./No. Rats: 5/5
[2]; 500 μg, administered at noon
  % AOA: 63%
  No. Ova.: 5.6 ± 2.7
  Rats Ovu./No. Rats: 3/8

## [N--Ac-- (pCl--D-Phe)^1,2,D-Trp^3,D-3-Pal^6,D-Ala^10 ]--LHRH [Analog VII]
[1]; dose 2.0 μg
  % AOA (% inhibition of ovulation in rats): 13%

## [N--Ac--(pCl--D-Phe)^1,2,D-2-Pal^3,D-Arg^6,D-Ala^10 ]--LHRH [Analog III]
[1]; dose 1.0 μg
  % AOA (% inhibition of ovulation in rats): 29%
  Rats ovu./No. rats: 5/7

## [N--Ac--(pCl--D-Phe)^1,2,D-3-Pal^3,6 ]--LHRH [Analog X]
[1]; dose 1.0 μg
  % AOA (% inhibition of ovulation in rats): 17%
  Rats ovu./No. rats: 5/6
[1]; dose 3.0 μg
  % AOA (% inhibition of ovulation in rats): 86%
  Rats ovu./No. rats: 1/7

## [N--Ac--(pCl--D-Phe)^1,2,D-3-Pal^3,6,D-Ala^10 ]--LHRH [Analog V]
[1]; dose 1.0 μg
  % AOA (% inhibition of ovulation in rats): 50%
  Rats ovu./No. rats: 5/10
[1]; dose 3.0 μg
  % AOA (% inhibition of ovulation in rats): 100%
  Rats ovu./No. rats: 0/7

## [N--Ac--(pCl--D-Phe)^1,2,D-3-Pal^3,D-Arg^6,D-Abu^10 ]--LHRH [Analog IX]
[1]; dose 1.0 μg
  % AOA (% inhibition of ovulation in rats): 10%
  Rats ovu./No. rats: 9/10

## [N--Ac--(pCl--D-Phe)^1,2,D-3-Pal^3,D-Arg^6,D-Ala^10 ]--LHRH [Analog II]
[1]; dose 0.5 μg
  % AOA (% inhibition of ovulation in rats): 58%
  Rats ovu./No. rats: 8/19
[1]; dose 1.0 μg
  % AOA (% inhibition of ovulation in rats): 78%
  Rats ovu./No. rats: 3/14

## [N--Ac--(pCl--D-Phe)^1,2,D-3-Pal^3,D-Trp^6,D-Ala^10 ]--LHRH [Analog VIII]
[1]; dose 1.0 μg
  Rats ovu./No. rats: 10/10

## [N--Ac--(pCl--D-Phe)^1,2,D-4-Pal^3,6,D-Ala^10 ]--LHRH [Analog VI]
[1]; dose 6.0 μg
  % AOA (% inhibition of ovulation in rats): 63% and 62.5%
  Rats ovu./No. rats: 3/8

## [N--Ac--(pCl--D-Phe)^1,2,D-4-Pal^3,D-Arg^6,D-Ala^10 ]--LHRH [Analog IV]
[1]; dose 0.5 μg
  % AOA (% inhibition of ovulation in rats): 14%
  Rats ovu./No. rats: 6/7
[1]; dose 6.0 μg
  % AOA (% inhibition of ovulation in rats): 33%
  Rats ovu./No. rats: 6/9

## [N--Ac--(pCl--D-Phe)^1,2,D-Trp^3,D-Arg^6,D-Ala^10 ]--LHRH [Analog I, reference compound]
[1]; dose 1.0 μg
  % AOA (% inhibition of ovulation in rats): 83%
  Rats ovu./No. rats: 1/6
[3]; dose 0.75 μg
  % AOA (% inhibition of ovulation in rats): 40%
  Rats ovu./No. rats: 6/10
[3]; dose 1.5 μg
  % AOA (% inhibition of ovulation in rats): 100%
  Rats ovu./No. rats: 0/10
[2]; 1 mg, administered at 2:30 PM
  % AOA: 50%
[2]; 2 mg, administered at 2:30 PM
  % AOA: 71%
[2]; 2 mg, administered at noon
  % AOA: 100%
  No. Ova.: 0
  Rats Ovu./No. Rats: 0/8

## [N--Ac--D-2-Nal^1,pCl--D-Phe^2,D-3-Pal^3,D-Arg^6, D-Ala^10 ]--LHRH [Analog XI]
[1]; 10 μg
  inhibition of ovulation: 100%
[1]; 30 μg
  inhibition of ovulation: 100%
[1]; 100 μg
  inhibition of ovulation: 100%
[1]; dose 0.25 μg
  % AOA (% inhibition of ovulation in rats): 57%
  Rats ovu./No. rats: 3/7
[1]; dose 0.5 μg
  % AOA (% inhibition of ovulation in rats): 100%
  Rats ovu./No. rats: 0/9
[2]; 250 μg, administered at noon
  % AOA: 10%
  No. Ova.: 13.0 ± 1.8
  Rats Ovu./No. Rats: 9/10
[2]; 500 μg, administered at noon
  % AOA: 56%
  No. Ova.: 6.1 ± 2.5
  Rats Ovu./No. Rats: 4/9
